Results: patent publication US20050186144A1, “Treatment methods” (SCHERING CORPORATION, priority 2004, published 2005)

Key:
[1] = Systemic effect of intranasal mometasone furoate (HPLC metabolite profiling of plasma radioactivity, first-pass metabolism, cortisol secretion); type: in vivo; conditions: administered intranasally
[2] = Phase-2 double-blind, randomized, placebo-controlled study in acute rhinosinusitis; type: in vivo, human; conditions: Amoxicillin 500 mg three times a day
Procedure: A Phase-2, dose-ranging, double-blind, double-dummy, randomized, multi-center, multi-national study with 4 parallel groups was carried out. There were three treatment regimens: Mometasone Furoate Nasal Spray 200 μg was administered once a day; Mometasone Furoate Nasal Spray 200 μg also was administered twice a day; Amoxicillin 500 mg was administered three times a day. All three were administered against placebo. The regimens were administered to subjects 12 years of age or older with acute rhinosinusitis that was clinically diagnosed with symptoms present for 7 days or more and 28 days or less. Subjects with a major symptom score (sum of symptoms—facial pain, rhinorrhea, post nasal drip, sinus headache, nasal congestion—each scored 0—none-to 3—severe) greater than or equal to 5 and less than or equal to 12 at baseline with less than or equal to 3 symptoms scored severe were included. Subjects with a bacterial rhinosinusitis suspected on the presence of fever greater than or equal to 101° F./38.3° C., persistent severe unilateral facial pain/tooth pain, orbital or peri-orbital facial swelling, dental involvement; and/or worsening symptoms after initial improvement were excluded from the study. The primary efficacy variable of the study was the actual major symptom score (averaged daily for AM and PM assessments over 15 days of treatment). […]

| Compound | first-pass metabolism in the liver [1] [%] | reduction in cortisol secretion levels [1] | major symptom score, efficacy vs. placebo ([2]; p=0.275) | recurrence rate ([2]; follow-up phase (14 days), MFNS 200 μg twice a day) [%] |
| --- | --- | --- | --- | --- |
| C[C@@H]1C[C@H]2[C@@H]3CCC4=CC(=O)C=C[C@]4(C)[C@@]3(Cl)[C@@H](O)C[C@]2(C)[C@@]1(OC(=O)c1ccco1)C(=O)CCl [mometasone furoate, Mometasone furoate] | > 98 | minimal reduction | – | – |
| CC1(C)S[C@@H]2[C@H](NC(=O)[C@H](N)c3ccc(O)cc3)C(=O)N2[C@H]1C(=O)O [Amoxicillin] | – | – | not different from placebo | 8 |
